Source: patent US20240197729A1, “ALK-5 Inhibitors and Uses Thereof” (Sumitomo Pharma Oncology, Inc., priority 2021, published 2024)
Where two headings read alike, the source gives them in different places.

Legend:
p-STAT3 (Tyr 705) = experiment: A549 xenograft assay, p-STAT3; format: in vivo, mice; details: tumors 4 h after dosing
From the text: (§1) To test compounds for inhibition of in vivo on-target activity (ALK5/TGF-bR1 inhibition) as well as potential Janus Kinase (JAK) signaling off-target activity, the A549 murine xenograft model was utilized. An ALK5 inhibitor (e.g., vactosertib) is expected to reduce the amount of the TGF-beta signaling molecule phospho-SMAD-2 (pSMAD2) in the A549 xenograft cells. The TGF-beta-mediated phosphorylation of SMAD2 in A549 cells takes place at amino acid residue four hundred and sixty-five and four hundred and sixty-seven (both are serine residues). A JAK inhibitor (e.g., ruxolitinib) is expected to reduce the phosphorylation of signal transducer and activator of transcription (STAT) proteins such as STAT3 at amino acid residue 705 (tyrosine).
(§2) At eight weeks of age, female athymic nude mice (purchased from Charles River) were injected with approximately 3.5 million A549 cells (ATCC, CCL-185). Specifically, cells were harvested and resuspended in plain RPMI media (no phenol red added) and Matrigel (Corning 356237) at a one to one ratio, and two hundred-microliters were injected into the right hind flank of each mouse. Tumors were measured every three days by caliper and as tumors reached an average of seventy-eighty millimeters cubed, mice were randomized in groups of three. All compounds were resuspended in 1-methyl-2-pyrrolidinone (Sigma 494496) (10%) plus 20% Solutol (Sigma 42966) in water (90%). Vactosertib and ruxolitinib were included as controls as ALK5 signaling inhibitor and JAK signaling inhibitor, respectively. Both controls were given at seventy-five milligrams per kilogram to three mice. The drug suspensions were sonicated for fifteen minutes to generate a fine particle suspension before being given to the mice. Mice were dosed (per oral gavage) with drug at one hundred, seventy-five, fifty, or ten milligrams per kilogram, with three mice per group. A vehicle control group with three mice was used to establish the baseline level of phospho-SMAD-2 in the tumor xenograft.
(§3) Four hours after drug administration, tumors were harvested, snap frozen and stored at negative eighty degrees Celsius until further processing. The phospho-SMAD-2 levels were determined using the Bio-Plex Pro™ Phospho-Smad2 (Ser465/Ser467) Set (BioRad 171V50019M). The phospho STAT3 levels were determined using the bead/antibody set from the MILLIPLEXMAP STAT Cell Signaling Magnetic Bead 5-Plex Kit (Millipore 48-610MAG). Both phospho SMAD-2 levels and phospho STAT3 levels were normalized to ß-Tubulin (MILLIPLEX MAP ß-Tubulin Total Magnetic Bead MAPmate™, Millipore 46-713MAG) or GAPDH (MILLIPLEX MAP GAPDH Total Magnetic Bead MAPmate™, Millipore 46-667MAG) levels from each sample. All analytes were analyzed in a multiplex fashion with the Bio-Plex Pro Cell Signaling Reagent Kit (BioRad 171304006M). Briefly, frozen tumor (fifteen to thirty milligrams) was lysed in 100 μl lysis buffer, processed in bead mill tube, and centrifuged. The resulting lysate was used at 1:50 dilution for the assay according to the manufacturer's instructions. Bead suspension was analyzed using the Luminex system (MAGPIX).

[1] = tested on: phospho-SMAD-2 (Ser465/Ser467); experiment: A549 xenograft assay, p-SMAD2; format: in vivo, mice; details: for Average % p-SMAD2 (Ser 465/467) of vehicle: tumors 4 h after dosing; for efficacious dose derived from p-SMAD2 inhibition in the A549 xenograft mouse model: per oral gavage
From the text: as §1, §2, §3

[2] = tested on: TGF-β1-mediated αSMA expression; experiment: Fibroblast to myofibroblast transformation (FMT) assay; details: for IC50: Homo sapiens, Fibroblast; for Potentially toxic concentration: lowest concentration with >25% loss of nuclei; for inhibition of TGF-β1-mediated αSMA expression: all three IPF donors; for loss of nuclei: donor IPF03, highest test concentration (10 μM); for modulation of the number of nuclei: donors IPF06 and IPF08
Procedure: To test the ability of selected compounds to inhibit the TGF-β1-dependent transition of fibroblasts to myofibroblasts in a relevant disease model of IPF, an FMT assay was performed using lung fibroblasts from IPF patients. In this assay, the transition of fibroblasts to myofibroblasts is determined by the expression of the biomarker alpha smooth muscle actin (α-SMA).
Primary human bronchial fibroblasts derived from IPF patients were seeded on day zero and the media was refreshed on day two. On day five, selected compounds or controls were added at an eight-point concentration response curve starting at 10 μM (semi-log dilutions). Each drug concentration condition was evaluated in biological duplicates. […] Seventy-two hours following TGF-beta addition, the cells were fixed with formaldehyde. High content imaging evaluating cell number using the nuclear stain DAPI as well as the expression of a-SMA was performed. The following controls were run alongside the selected compounds: vactosertib and the approved IPF drug nintedanib (at an eight-point, semi-log curve with 10 μM starting concentration). As a negative control 0.1% DMSO was also used, matching the DMSO concentration in treated wells. The following calculations were used to determine cell number as well as percent inhibition (PIN) of alpha SMA expression:
• Segmentation and quantification of αSMA immunoreactivity by an HCA algorithm, with density×area (D×A) output • Data normalization of raw αSMA (D×A) to percentage inhibition (PIN) values, on a plate-to-plate basis
• DAPI fluorescence applied for HCA-based quantification of the number of imaged cells, on a plate-to-plate basis
[formula] • μn is the average numbers of nuclei of the vehicle control (TGF-β1+0.1% DMSO) • Xi is the compound number of nuclei

[3] = tested on: SMAD signaling triggered by myostatin; experiment: Myostatin-triggered SMAD signaling in RDSR cells; format: cell-based; details: Homo sapiens, 50 ng/ml myostatin, 24 h
Procedure: To determine the ability of compounds to inhibit the SMAD signaling triggered by myostatin, and therefore possibly help alleviate cachexia in cancer patients, the following assay was performed. The RD cell line, a human rhabdomyosarcoma cell line, was purchased from ATCC (CCL-136) and a stably SMAD reporter plasmid (Promega, pGL4.48[luc2P/SBE/Hygro]) was introduced to create the RD SMAD Reporter (RDSR) cell line. Twenty thousand RDSR cells were seeded into a 96-well plate (Greiner bio-one 655083) in DMEM media supplemented with 10% fetal bovine serum. Cells were pre-incubated with selected compounds at various concentrations (8-point curve ranging from 10 micromolar to 610 picomolar) for one hour, then were stimulated with 50 nanograms per milliliter myostatin (R&D, 788-G8-010) for twenty-four hours. The luciferase signal was then read out with One-Glo substrate on the Envision plate reader.

[4] = read-out: Average IC50 (nM), average of donors IPF03, IPF06, IPF08
[5] = read-out: IC50 αSMA, donor IPF03
[6] = read-out: IC50 αSMA, donor IPF06
[7] = read-out: IC50 αSMA, donor IPF08
[8] = read-out: pIC50 αSMA, donor IPF03 (converted)
[9] = read-out: pIC50 αSMA, donor IPF06 (converted)
[10] = read-out: pIC50 αSMA, donor IPF08 (converted)

| SMILES | Average % p-STAT3 (Tyr 705) of vehicle (p-STAT3 (Tyr 705); 10 mg/kg per oral gavage) | Average % p-STAT3 (Tyr 705) of vehicle (p-STAT3 (Tyr 705); 50 mg/kg per oral gavage) | Average % p-STAT3 (Tyr 705) of vehicle (p-STAT3 (Tyr 705); 75 mg/kg per oral gavage) | Average % p-STAT3 (Tyr 705) of vehicle (p-STAT3 (Tyr 705); 100 mg/kg per oral gavage) | Average % p-SMAD2 (Ser 465/467) of vehicle ([1]; 10 mg/kg per oral gavage) | Average % p-SMAD2 (Ser 465/467) of vehicle ([1]; 50 mg/kg per oral gavage) | Average % p-SMAD2 (Ser 465/467) of vehicle ([1]; 75 mg/kg per oral gavage) | Average % p-SMAD2 (Ser 465/467) of vehicle ([1]; 100 mg/kg per oral gavage) | IC50 [2, 4] | IC50 [2, 5] | IC50 [2, 6] | IC50 [2, 7] | IC50 [2, 8] | IC50 [2, 9] | IC50 [2, 10] | Max PIN (%) ([2]; donor IPF03) | Potentially toxic concentration ([2]; donor IPF03) | Max PIN (%) ([2]; donor IPF06) | Max PIN (%) ([2]; donor IPF08) | IC50 [3] | also measured |
| --- | --- | --- | --- | --- | --- | --- | --- | --- | --- | --- | --- | --- | --- | --- | --- | --- | --- | --- | --- | --- | --- |
| Cc1cccc2c(Nc3ccnc(Nc4ccc(N5CCOCC5)cc4)c3)cnnc12 [Compound 05, N4-(8-methylcinnolin-4-yl)-N2-[4-(morpholin-4-yl)phenyl]pyridine-2,4-diamine] | 107% | 85% | 77% | 93% | 136% | 74% | 11% | 13% | 50 nM | 60 nM | 50 nM | 40 nM | 63.1 nM | 50.1 nM | 39.8 nM | 106% | 5.0 | 106% | 101% | – | – |
| Clc1cccc2c(Nc3ccnc(Nc4cccc(N5CCOCC5)c4)c3)cnnc12 [Compound 04, N4-(8-chlorocinnolin-4-yl)-N2-[3-(morpholin-4-yl)phenyl]pyridine-2,4-diamine] | 88% | 73% | 59% | 97% | 69% | 13% | 6% | 7% | 40 nM | 40 nM | 50 nM | 30 nM | 39.8 nM | 50.1 nM | 31.6 nM | 107% | – | 106% | 100% | 19.1 nM | efficacious dose derived from p-SMAD2 inhibition in the A549 xenograft mouse model [1]: fifty; inhibition of the biomarker p-SMAD2 ([1]; seventy-five milligrams per kilogram): 94%; inhibition of TGF-β1-mediated αSMA expression [2]: full concentration-dependent inhibition; loss of nuclei [2]: < 25%; modulation of the number of nuclei [2]: No modulation of the number of nuclei was observed |
| Cc1cccc(-c2[nH]c(CNc3ccccc3F)nc2-c2ccc3ncnn3c2)n1 [Vactosertib, vactosertib, reference compound] | – | – | 63% | – | – | – | 32% | – | 38.3 nM | 50 nM | 40 nM | 25 nM | 50.1 nM | 39.8 nM | 25.1 nM | 105% | – | 104% | 102% | 16.4 nM | – |
| Cc1nn(CC(F)(F)F)cc1Nc1cc(Nc2cnnc3c(C)cccc23)ccn1 [Compound 01, N2-[3-methyl-1-(2,2,2-trifluoroethyl)-1H-pyrazol-4-yl]-N4-(8-methylcinnolin-4-yl)pyridine-2,4-diamine] | 92% | 70% | 66% | 76% | 97% | 33% | 13% | 8% | 83.3 nM | 100 nM | 100 nM | 50 nM | 100 nM | 100 nM | 50.1 nM | 106% | 5.0 | 107% | 101% | 57.1 nM | efficacious dose derived from p-SMAD2 inhibition in the A549 xenograft mouse model [1]: seventy-five; inhibition of TGF-β1-mediated αSMA expression [2]: full concentration-dependent inhibition; loss of nuclei [2]: > 25%; modulation of the number of nuclei [2]: No modulation of the number of nuclei was observed |
